Data reported in PubChem BioAssay (NCI).
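Cells were grown in 96-well plates and exposed to each compound for 48 hours at five concentrations; endpoints were interpolated linearly between bracketing concentrations, or set to the highest concentration if not reached. The concentration for full growth arrest is given as TGI.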

Legend:
Assay in all cases: NCI anticancer screen, dose series, 48 h
MDA-N = tested on: MDA-N
SNB-19 CNS = tested on: SNB-19 CNS
MDA-MB-435 = tested on: MDA-MB-435
SF-295 CNS = tested on: SF-295 CNS
MCF7 breast = tested on: MCF7 breast
TK-10 renal = tested on: TK-10 renal
SK-MEL-5 melanoma = tested on: SK-MEL-5 melanoma
MOLT-4 leukemia = tested on: MOLT-4 leukemia
HCT-116 colon = tested on: HCT-116 colon
PC-3 prostate = tested on: PC-3 prostate
HT29 colon = tested on: HT29 colon
786-0 renal = tested on: 786-0 renal
RPMI-8226 leukemia = tested on: RPMI-8226 leukemia
CAKI-1 renal = tested on: CAKI-1 renal
CCRF-CEM leukemia = tested on: CCRF-CEM leukemia

SMILES	TGI (MDA-N)	TGI (SNB-19 CNS)	TGI (MDA-MB-435)	TGI (SF-295 CNS)	TGI (MCF7 breast)	TGI (TK-10 renal)	TGI (SK-MEL-5 melanoma)	TGI (MOLT-4 leukemia)	TGI (HCT-116 colon)	TGI (PC-3 prostate)	TGI (HT29 colon)	TGI (786-0 renal)	TGI (RPMI-8226 leukemia)	TGI (CAKI-1 renal)	TGI (CCRF-CEM leukemia)
C[C@@]12c3c4ccc(C=O)c3Oc3ccc(C=O)c(c31)Oc1c(C=O)ccc(c12)O4	> 100 µM	> 100 µM	> 100 µM	> 100 µM	> 100 µM	> 100 µM	> 100 µM	> 100 µM	> 100 µM	> 100 µM	> 100 µM	> 100 µM	> 100 µM	–	–
Oc1[nH]c2ccccc2c1N=NC(=S)N1CCCCC1	15.5 µM	12.5 µM	4.58 µM	3.36 µM	6.26 µM	3.84 µM	1.03 µM	2.15 µM	1.54 µM	10.3 µM	10.8 µM	6.64 µM	2.43 µM	4.43 µM	–
CCC(CC)C(=O)OC[n+]1ccc(-c2c(COC(=O)NC(C)C)c(COC(=O)NC(C)C)c3n2CCC3)cc1	> 100 µM	> 100 µM	–	> 100 µM	> 100 µM	–	> 100 µM	> 100 µM	–	> 100 µM	–	> 100 µM	> 100 µM	> 100 µM	> 100 µM
COC(=O)/C=C/c1cnc2c(c1)oc(=O)n2CCc1ccccn1	> 100 µM	> 100 µM	89 µM	> 100 µM	> 100 µM	> 100 µM	> 100 µM	> 100 µM	> 100 µM	> 100 µM	> 100 µM	> 100 µM	> 100 µM	–	69 µM
Nc1nc(N)c(C2=CCN(Cc3ccccc3)CC2)c(=O)[nH]1	> 100 µM	> 100 µM	> 100 µM	> 100 µM	> 100 µM	–	> 100 µM	> 100 µM	> 100 µM	> 100 µM	> 100 µM	> 100 µM	> 100 µM	> 100 µM	> 100 µM
CCOC(=O)[C@@H]1C[C@H]1c1ccc(O)c(O)c1	37.8 µM	> 100 µM	> 100 µM	> 100 µM	> 100 µM	> 100 µM	31.3 µM	> 100 µM	28.6 µM	> 100 µM	> 100 µM	> 100 µM	> 100 µM	> 100 µM	–
Cn1c(NN)nc(-c2ccc([N+](=O)[O-])cc2)c(C#N)c1=O	24.9 µM	26.3 µM	32.8 µM	29.9 µM	31.9 µM	27.4 µM	17.3 µM	–	25.4 µM	43.5 µM	28.7 µM	27.2 µM	> 100 µM	61.6 µM	> 100 µM
C[C@]12CCC3c4ccc(O)cc4CC[C@H]3C1CC(=O)N(N)C2=O (stereo partly drawn)	> 100 µM	> 100 µM	> 100 µM	> 100 µM	> 100 µM	> 100 µM	> 100 µM	> 100 µM	> 100 µM	> 100 µM	> 100 µM	> 100 µM	–	> 100 µM	> 100 µM
O=C(O)CN=C(C(=NCC(=O)O)c1ccccc1)c1ccccc1	> 100 µM	> 100 µM	> 100 µM	> 100 µM	> 100 µM	> 100 µM	–	> 100 µM	> 100 µM	> 100 µM	–	> 100 µM	> 100 µM	> 100 µM	–
COc1ccc(-c2cc(-c3ccc(Cl)cc3)n(C3OC(CO)C(O)C(O)C3O)c(=S)c2C#N)cc1 (stereo not drawn)	> 100 µM	> 100 µM	> 100 µM	> 100 µM	–	82.8 µM	> 100 µM	> 100 µM	> 100 µM	> 100 µM	> 100 µM	35.5 µM	> 100 µM	–	–
CCN(CC)CCNc1ccc2ncn3c4c(OC)ccc(OC)c4c(=O)c1c23	25.4 µM	58.7 µM	–	29.7 µM	17 µM	> 100 µM	31.4 µM	30.4 µM	17.3 µM	–	–	70.9 µM	–	> 100 µM	27.1 µM
CC1(C)OCC2(CO1)CSCCCSCC1(COC(C)(C)OC1)CSCCCSC2	> 100 µM	> 100 µM	> 100 µM	> 100 µM	–	> 100 µM	> 100 µM	> 100 µM	> 100 µM	> 100 µM	> 100 µM	> 100 µM	> 100 µM	–	> 100 µM
CCSc1c(C)c2c(n(Cc3ccc(OC)cc3)c1=O)Cc1ccccc1C2	> 100 µM	> 100 µM	> 100 µM	> 100 µM	> 100 µM	73.3 µM	77.4 µM	14.8 µM	32.5 µM	84.3 µM	72.2 µM	28.9 µM	–	> 100 µM	> 100 µM
O=C(O)c1nc2cc(C(F)(F)F)ccc2nc1Nc1ccc(Cl)c(Cl)c1	69.2 µM	53.5 µM	18.6 µM	31.7 µM	90.1 µM	37.1 µM	52.6 µM	–	21.1 µM	16.1 µM	28.8 µM	29.3 µM	59 µM	80.3 µM	–
COC(=O)c1ccc(Oc2nc3ccccc3nc2-c2cccs2)cc1	> 100 µM	86.1 µM	> 100 µM	48 µM	> 100 µM	86.8 µM	> 100 µM	> 100 µM	> 100 µM	> 100 µM	> 100 µM	> 100 µM	–	> 100 µM	> 100 µM
Cc1cccc2[nH]c3cc(O)cc(O)c3c(=O)c12	> 10 µM	> 10 µM	> 10 µM	> 10 µM	–	> 10 µM	> 10 µM	> 10 µM	> 10 µM	> 10 µM	> 10 µM	> 10 µM	> 10 µM	> 10 µM	> 10 µM
CC(NC(=O)C(OC(=O)C(C)NC(=O)OC(C)(C)C)C(C)C)C(=O)OC(C(=O)O)C(C)C (stereo not drawn)	> 100 µM	> 100 µM	> 100 µM	> 100 µM	–	> 100 µM	> 100 µM	> 100 µM	–	> 100 µM	> 100 µM	> 100 µM	> 100 µM	> 100 µM	–
